Experimental data published in US9862718B2, “Sodium salt of (2S, 5R)-6-benzyloxy-7-oxo-1,6-diaza-bicyclo [3.2.1] octane-2-carboxylic acid and its preparation” (WOCKHARDT LIMITED, priority 2013, dated 2018).

What was measured:
Type in all cases: physicochemical
[1] = stability study on storage at room temperature (purity by HPLC)
[2] = hygroscopicity of the isolated solid; details: isolated solid material, compared with the corresponding free acid
Procedure: (1) The compound of Formula (I) is isolable as a highly pure solid material (purity of about at least 98% as determined by HPLC) and is a non-hygroscopic material as compared with the corresponding free acid (compound of Formula (V), which is obtained as syrupy material).
The precipitated solid was filtered under suction and the wet cake was washed with chilled acetone (400 ml). The non-hygroscopic solid was dried under vacuum at 40° C. for 1 hour to provide off-white colored material (sodium salt of (2S,5R)-6-benzyloxy-7-oxo-1,6-diaza-bicyclo{3.2.1}-octane-2-carboxylic acid) in 135 gm (89%, calculation adjusted for 70% purity of free acid) quantity.

[3] = stability of the free acid on storage (attempts to prepare this compound); details: syrupy in nature
Text: The compound of Formula (V) i.e. (2S,5R)-6-benzyloxy-7-oxo-1,6-diaza-bicyclo[3.2.1]octane-2-carboxylic acid is disclosed in International Patent Application No. PCT/FR01/02418. […] US Patent Publication No. 20100197928 discloses a procedure to prepare a diastereomeric mixture of (S)-5-benzyloxyamino-piperidin-2-carboxylic acid benzyl ester as an oxalate salt in 50:50 ratio.

## O=C([O-])[C@@H]1CC[C@@H]2CN1C(=O)N2OCc1ccccc1.[Na+] [Formula (I), sodium salt of (2S,5R)-6-benzyloxy-7-oxo-1,6-diaza-bicyclo[3.2.1]octane-2-carboxylic acid]
[1]; stability study, room temperature, initial
  purity as analyzed by HPLC, initial purity: 99.75%
[1]; storage at room temperature for three months
  stability on storage: excellent stability
[1]; storage at room temperature, after three months
  purity as analyzed by HPLC, purity after three months: 99.66%
[1]; storage at room temperature, after two moths
  purity as analyzed by HPLC, purity after two moths: 99.69%
[2]
  hygroscopicity: non-hygroscopic

## O=C(O)[C@@H]1CC[C@@H]2CN1C(=O)N2OCc1ccccc1 [Formula (V), (2S,5R)-6-benzyloxy-7-oxo-1,6-diaza-bicyclo[3.2.1]octane-2-carboxylic acid]
[3]
  stability on storage: unstable
